According to PubChem BioAssay (NCI):
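Step 1: Grow cells in 96-well plates. Step 2: Expose to compound for 48 hours at 5 concentrations. Step 3: Interpolate endpoints linearly; if unreached, use highest concentration. TGI denotes the concentration required for complete inhibition of growth.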

Assays:
Assay in all cases: growth of human tumour cells (NCI), 48 h
[1] = system: UO-31 renal
[2] = system: DU-145 prostate
[3] = system: A549 NSCLC
[4] = system: 786-0 renal
[5] = system: CCRF-CEM leukemia
[6] = system: NCI-H522 lung
[7] = system: T-47D breast
[8] = system: RPMI-8226 leukemia
[9] = system: TK-10 renal
[10] = system: OVCAR-8 ovarian
[11] = system: UACC-257 melanoma
[12] = system: HOP-62 NSCLC
[13] = system: OVCAR-5 ovarian
[14] = system: SK-MEL-5 melanoma
[15] = system: COLO 205 colon
[16] = system: SF-268 CNS
[17] = system: CAKI-1 renal
[18] = system: RXF 393 renal
[19] = system: SF-539 CNS

| SMILES | TGI [1] [µM] | TGI [2] [µM] | TGI [3] [µM] | TGI [4] [µM] | TGI [5] [µM] | TGI [6] [µM] | TGI [7] [µM] | TGI [8] [µM] | TGI [9] [µM] | TGI [10] [µM] | TGI [11] [µM] | TGI [12] [µM] | TGI [13] [µM] | TGI [14] [µM] | TGI [15] [µM] | TGI [16] [µM] | TGI [17] [µM] | TGI [18] [µM] | TGI [19] [µM] |
| --- | --- | --- | --- | --- | --- | --- | --- | --- | --- | --- | --- | --- | --- | --- | --- | --- | --- | --- | --- |
| O=[N+]([O-])c1cc(-[n+]2cc([O-])on2)ccc1Cl | 31 | 30.5 | > 100 | 60.3 | 62.4 | 31.7 | 38.8 | 79.8 | 67.2 | 49.7 | 27.5 | 30.1 | 32.4 | 21.9 | > 100 | 78.3 | 5.01 | 27.9 |  |
| Cc1cc(S(=O)(=O)Nc2nnc3ccccn23)c(S)cc1Cl | > 100 | > 100 | > 100 | > 100 |  | > 100 | > 100 | > 100 | > 100 | > 100 | > 100 | > 100 | > 100 | > 100 | > 100 |  |  |  | > 100 |
| O=c1[nH][nH]c(=O)n1/N=C/c1ccccc1 | > 100 | > 100 | > 100 | > 100 | > 100 |  | > 100 | > 100 | > 100 | > 100 | > 100 | > 100 | > 100 | > 100 | > 100 | > 100 | > 100 |  | > 100 |
| COC(=O)CN1C(=O)C2(C(=O)OC)OC1(c1ccc([N+](=O)[O-])cc1)C1C(=O)N(c3ccccc3)C(=O)C12 (stereo not drawn) | > 100 | > 100 | > 100 | > 100 | > 100 | > 100 | > 100 |  | > 100 | > 100 | > 100 | > 100 | > 100 | > 100 | > 100 | > 100 | > 100 | > 100 | > 100 |
| CN(C)c1ccc(/C=N/c2nc3cc4sc(/N=C/c5ccc(N(C)C)cc5)nc4cc3s2)cc1 | > 100 | 99.1 | > 100 | > 100 | > 100 | > 100 | > 100 | > 100 | > 100 | > 100 | > 100 | > 100 | > 100 | > 100 | > 100 | > 100 | > 100 |  | > 100 |
| CS(=O)(=O)OCCCSCCSCCCOS(C)(=O)=O | > 100 | > 100 | > 100 | > 100 | > 100 | > 100 | > 100 |  | > 100 | > 100 | > 100 | > 100 | > 100 | > 100 | > 100 | > 100 |  |  | > 100 |
| O=C(CC(C(=O)c1ccsc1)c1ccsc1)c1ccsc1 (stereo not drawn) | > 100 | > 100 | > 100 | > 100 | > 100 |  | > 100 | > 100 | > 100 | > 100 | > 100 | > 100 |  | > 100 | > 100 | > 100 | > 100 |  | > 100 |
| Cc1nc2cc3ccccc3cc2[nH]c1=O | > 100 | > 100 | > 100 | > 100 | > 100 | > 100 | > 100 |  | > 100 | > 100 | > 100 | > 100 | > 100 | > 100 | > 100 | > 100 | > 100 | > 100 | > 100 |
| CCOC(=O)OC1C(Br)C2CCC1(C)C2(C)C (stereo not drawn) | 24.6 | 33 | 30.1 | 28.8 | 17.3 | 30.2 | 30.3 | 20.7 | 27.8 | 31.7 | 29.5 | 31.2 | 31.7 | 27.6 | 26.2 | 29.6 |  | 25.1 | 28 |
| CCOC(=O)C1C(c2ccc(OC)cc2)c2c([nH][nH]c2=O)CC1(C)O (stereo not drawn) | > 100 | > 100 | > 100 | > 100 | > 100 | > 100 | > 100 | > 100 | > 100 | > 100 | > 100 | > 100 | > 100 | > 100 | > 100 | > 100 | > 100 |  | > 100 |
| Cc1cn(Cc2cccc(C3=NCCCN3)c2)c(=O)n(Cc2cccc(C3=NCCCN3)c2)c1=O | > 100 | > 100 | > 100 | > 100 | > 100 | > 100 | > 100 | > 100 | > 100 | > 100 | > 100 | > 100 | > 100 | > 100 | > 100 | > 100 | > 100 |  |  |
| CCOC(=O)NN(C(=O)OCC)C(=C(C1=CCCCC1)N1CCOCC1)N(NC(=O)OCC)C(=O)OCC | > 100 | > 100 | > 100 | > 100 |  |  | > 100 | > 100 | > 100 | > 100 |  | > 100 | > 100 |  | > 100 | > 100 | > 100 | > 100 |  |
| CO[C@@]12C[C@@H](C)[C@]34O[C@H]3C[C@]3(C)O[C@]43CC1=C(C)C(=O)O2 | > 100 | > 100 | > 100 | > 100 |  | > 100 | > 100 | > 100 | > 100 | > 100 | > 100 |  | > 100 | > 100 | > 100 | > 100 | > 100 |  | > 100 |
| COc1ccc(N=Nc2ccc3oc(=O)c(C(=O)Nc4ccccc4C)cc3c2)cc1 | > 10 | > 10 |  | > 10 |  | > 10 | > 10 | > 10 | > 10 | > 10 | > 10 | > 10 | > 10 | > 10 | > 10 | > 10 | > 10 | > 10 | > 10 |
| CCNC1=C(NC(=O)c2ccccc2)C(=O)c2ccccc2C1=O |  | > 100 | > 100 | > 100 | > 100 | 79.2 | > 100 | > 100 | > 100 | > 100 | 64.5 | > 100 | > 100 |  | > 100 |  |  | 74.1 | > 100 |
| COC(=O)Cc1c([C@H]2[C@H](CC(=O)OC)c3ccccc3N2S(=O)(=O)c2ccc(C)cc2)[nH]c2ccccc12 | > 100 | > 100 | > 100 | > 100 | > 100 | > 100 |  | > 100 | > 100 | > 100 | > 100 | > 100 | > 100 | > 100 | > 100 | > 100 | > 100 | > 100 | > 100 |
| O=C(COc1ccccc1)N(C(=O)N1CCN(c2ccccc2)CC1)S(=O)(=O)c1ccccc1 | > 100 | > 100 | > 100 | > 100 | 61.2 | > 100 | 87.6 |  | > 100 | > 100 | > 100 | > 100 | > 100 | > 100 | > 100 | > 100 | > 100 |  | > 100 |
| O=c1oc2ccccc2c(O)c1C(c1ccc(-c2ccccc2)cc1)c1c(O)c2ccccc2oc1=O | 31.6 | > 100 |  | 81.3 | 93.8 | 66.7 | > 100 | 95.8 | > 100 | 34.1 | > 100 | 55.4 |  | 80.9 | > 100 | 57.1 | 39.4 |  |  |
| Nc1cc2ncnn2c(SCC(=O)N/N=C/C(Br)=C\c2ccccc2)n1 | 32 |  | 60.1 | 36.9 | > 100 | 22.9 | 9.35 | 50.1 | 72.3 | 52.3 | 25.3 | 87.2 | 55.2 | 26.2 | 41.1 |  | 37.2 | 42.2 | 39.2 |
| C/C(=N\Nc1nc2ccccc2[nH]1)c1cnccn1 | > 27.2 |  | > 40.5 | > 100 | 6.75 |  | > 68.4 |  | > 66.5 | > 93.3 | > 31 | > 100 | > 100 | 13.2 | > 40.2 | > 100 | 14.9 | 4.81 |  |
| O=[N+]([O-])c1cc(N=Nc2c(O)ccc3cc(S(=O)(=O)O)ccc23)c(O)c([N+](=O)[O-])c1 | > 100 | > 100 | > 100 | > 100 | > 100 | > 100 | > 100 | > 100 | > 100 | > 100 | > 100 | > 100 | > 100 | > 100 | > 100 | > 100 | > 100 | > 100 |  |
| CN(/N=C/c1ccccn1)C1=NCCCN1 | > 100 |  | > 100 | > 100 | > 100 | > 100 | > 100 | > 100 | > 100 | > 100 | > 100 | > 100 | > 100 | > 100 | > 100 | > 100 | > 100 | > 100 | > 100 |
| O=C1c2ccccc2C(=O)c2c(NC(=O)C3CC3)ccc(NC(=O)C3CC3)c21 | > 100 |  | > 100 | > 100 |  | > 100 | > 100 | > 100 | > 100 | > 100 | > 100 | > 100 | > 100 | > 100 | > 100 |  |  |  | > 100 |
| C=CCOCn1cc(F)c(=O)[nH]c1=O | > 100 | > 100 | > 100 | > 100 | > 100 | > 100 | > 100 | > 100 | > 100 | > 100 | > 100 | > 100 |  | > 100 | > 100 | > 100 | > 100 |  | > 100 |
| c1ccc(-c2c(-c3cccs3)[nH]c(-c3cccs3)c2-c2ccccn2)nc1 | 57.3 | > 100 | 72.8 | 53 | 52.5 |  | 94.9 | 68.5 | > 100 | 75.2 | 43.6 |  | 66.6 | 26.6 | 30.6 | 49.8 | > 100 | 53.5 | 40.6 |
| Nc1cccc(OCC2CCCN3CCCCC23)c1 (stereo not drawn) | 75.2 | 32.6 | 45.1 | 29.6 | 34.4 |  | 33.8 | 33.1 | 34.1 | 34.4 | 34.3 | 36.1 | 35.2 | 33.8 | 36.8 | 36.2 | 35.2 | 42.7 | 36.5 |
| c1ccc(Cn2c(-c3ccc(-c4ccccc4)cc3)cc3ccccc32)cc1 | > 100 | > 100 | > 100 | > 100 | > 100 | > 100 | > 100 | > 100 | > 100 | > 100 | > 100 | > 100 | > 100 | > 100 | > 100 | > 100 | > 100 |  | > 100 |
